Test results from patent publication US8722868B2, “Glycosyltransferase, novel glycosyltransferase gene, and novel sugar donor compound” (National University Corporation Tokyo University of …, priority 2009, dated 2014).

Molecular target: T1, crude enzyme obtained from pink petals of a carnation (variety: "Beam Cherry") (glycosyltransferase) (Dianthus caryophyllus, UniProt E3W9M2)
T1 construct: Thus, a crude enzyme liquid was obtained; from tissue; host or cells: pink petals of carnation, variety Beam Cherry (ammonium sulfate precipitate, desalted)
T1 sequence (E3W9M2 31-502): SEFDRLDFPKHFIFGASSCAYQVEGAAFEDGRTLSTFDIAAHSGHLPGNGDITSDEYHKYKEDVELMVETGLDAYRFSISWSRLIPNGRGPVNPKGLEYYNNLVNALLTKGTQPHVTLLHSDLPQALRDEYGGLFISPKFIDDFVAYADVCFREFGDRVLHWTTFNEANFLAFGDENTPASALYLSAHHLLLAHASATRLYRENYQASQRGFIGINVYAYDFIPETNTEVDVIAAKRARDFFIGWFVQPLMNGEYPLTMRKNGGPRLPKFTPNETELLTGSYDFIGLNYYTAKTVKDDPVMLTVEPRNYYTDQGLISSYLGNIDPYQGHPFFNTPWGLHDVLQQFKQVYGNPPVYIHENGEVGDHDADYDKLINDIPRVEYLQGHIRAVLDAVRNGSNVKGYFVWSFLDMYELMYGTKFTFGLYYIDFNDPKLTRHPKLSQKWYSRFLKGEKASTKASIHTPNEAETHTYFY
Assay: Relative activity of crude carnation petal enzyme on each sugar donor (glycosyl transfer to cyanidin 3-glucoside, HPLC)
Assay type: biochemical
Details: crude enzyme 61 μg, cyanidin β-glucoside 200 μM, sugar donor 500 μM, citric acid buffer pH 5.6, 30° C., 15 minutes, HPLC area of cyanidin 3,5-O-β diglucoside
Protocol: An enzyme reaction was carried out at 30° C. for 15 minutes in a reaction solution obtained by adding a citric acid buffer (pH 5.6) to a crude enzyme obtained from pink petals of a carnation (variety: “Beam Cherry”) (61 μg), cyanidin β-glucoside (200 μM), and a sugar donor (1-O-β-vanillyl glucose extracted from a carnation or any of synthesized 1-O-vanillyl glucose (in the α or β form), 1-O-isovanillyl glucose (in the α or β form), and 1-O-galloyl glucose (in the α or β form)) (500 μM) to a final volume of 30 μl. The reaction was terminated by adding a 20% phosphoric acid aqueous solution to the reaction liquid so as to result in a final phosphoric acid concentration of 1%, followed by centrifugation. The obtained supernatant was subjected to separation using an HPLC (Chromolith Speed ROD; 4.6×50 mm; Merck) with a linear gradient (5 minutes) of 18% to 28% liquid B containing eluent A (a 1.5% phosphoric acid aqueous solution) and eluent B (a 90% methanol aqueous solution) (flow rate: 3.0 ml/min; 520 nm), followed by analysis. The relative activity of the enzyme on each sugar donor was calculated based on the HPLC chromatogram area of a reaction product (cyanidin 3,5-O-β diglucoside) at a wavelength of 505 nm.

## COc1cc(C(=O)OC2OC(CO)C(O)C(O)C2O)ccc1O (centres unmarked)
  Relative activity of an enzyme on a sugar donor (when synthetic 1-O-β-vanillyl glucose is set as 100): 100
Listed as 1-O-β-vanillyl glucose (from carnation)
  Relative activity of an enzyme on a sugar donor (when synthetic 1-O-β-vanillyl glucose is set as 100): 97.9
